The target in test [1] is T1, Sigma intracellular receptor 2 (Rattus norvegicus, UniProt Q5U3Y7).
T1 sequence (Q5U3Y7 whole entry): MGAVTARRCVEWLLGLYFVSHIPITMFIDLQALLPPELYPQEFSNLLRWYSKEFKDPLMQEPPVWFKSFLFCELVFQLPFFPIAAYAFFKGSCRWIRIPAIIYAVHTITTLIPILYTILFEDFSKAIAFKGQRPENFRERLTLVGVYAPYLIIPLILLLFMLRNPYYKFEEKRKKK
Put plainly: Displacement of [3H]-di-o-tolylguanidine from sigma2 receptor in rat liver membranes incubated for 120 mins in the presence of sigma1 receptor ligand (+)-pentazocine by scintillation counting method. It is filed as cell membranes, Membrane.

Test [2] has as its target Sigma non-opioid intracellular receptor 1 (Cavia porcellus, UniProt Q60492). Kind of test: Displacement of [3H]-(+)-pentazocine from sigma1 receptor in guinea pig brain membranes incubated for 120 mins by scintillation counting method. The format is cell membranes, Membrane. (Loss of bound radioactivity is the signal in a displacement assay; it reports binding, not function.)

Test [3] concerns the target Glutamate receptor ionotropic, NMDA 2B (Homo sapiens, UniProt Q05586+Q13224). Put plainly: Displacement of [3H]ifenprodil from human recombinant GluN2B expressed in mouse L(tk-) cell membranes co-expressing GluN1a incubated for 120 mins by scintillation counting method.
Test [4] can be described thus: Cytoprotection against glutamate/glycine-induced cytotoxicity against mouse LTK cells expressing GluN1a/GluN2B assessed as inhibition of cell death incubated for 12 hrs by LDH assay. It is filed as functional, cell-based.
Test [5] is described as follows: Selectivity index, ratio of Ki for sigma2 receptor in rat liver membranes to Ki for human GluN2B expressed in mouse L(tk-) cell membranes co-expressing GluN1a. The format is cell-based.
Test [6] in a line: Selectivity index, ratio of Ki for sigma1 receptor in guinea pig brain membranes to Ki for human GluN2B expressed in mouse L(tk-) cell membranes co-expressing GluN1a. It is filed as cell-based.

Sequence of Sigma non-opioid intracellular receptor 1 (Q60492 whole entry): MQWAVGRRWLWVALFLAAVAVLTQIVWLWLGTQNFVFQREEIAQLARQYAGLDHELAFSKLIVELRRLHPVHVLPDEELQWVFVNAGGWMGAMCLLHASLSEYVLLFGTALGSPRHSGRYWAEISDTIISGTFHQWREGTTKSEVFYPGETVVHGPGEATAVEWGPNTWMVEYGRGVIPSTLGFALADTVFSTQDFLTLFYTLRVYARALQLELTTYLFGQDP
Sequence of Glutamate receptor ionotropic, NMDA 2B (Q13224 whole entry, one chain of several): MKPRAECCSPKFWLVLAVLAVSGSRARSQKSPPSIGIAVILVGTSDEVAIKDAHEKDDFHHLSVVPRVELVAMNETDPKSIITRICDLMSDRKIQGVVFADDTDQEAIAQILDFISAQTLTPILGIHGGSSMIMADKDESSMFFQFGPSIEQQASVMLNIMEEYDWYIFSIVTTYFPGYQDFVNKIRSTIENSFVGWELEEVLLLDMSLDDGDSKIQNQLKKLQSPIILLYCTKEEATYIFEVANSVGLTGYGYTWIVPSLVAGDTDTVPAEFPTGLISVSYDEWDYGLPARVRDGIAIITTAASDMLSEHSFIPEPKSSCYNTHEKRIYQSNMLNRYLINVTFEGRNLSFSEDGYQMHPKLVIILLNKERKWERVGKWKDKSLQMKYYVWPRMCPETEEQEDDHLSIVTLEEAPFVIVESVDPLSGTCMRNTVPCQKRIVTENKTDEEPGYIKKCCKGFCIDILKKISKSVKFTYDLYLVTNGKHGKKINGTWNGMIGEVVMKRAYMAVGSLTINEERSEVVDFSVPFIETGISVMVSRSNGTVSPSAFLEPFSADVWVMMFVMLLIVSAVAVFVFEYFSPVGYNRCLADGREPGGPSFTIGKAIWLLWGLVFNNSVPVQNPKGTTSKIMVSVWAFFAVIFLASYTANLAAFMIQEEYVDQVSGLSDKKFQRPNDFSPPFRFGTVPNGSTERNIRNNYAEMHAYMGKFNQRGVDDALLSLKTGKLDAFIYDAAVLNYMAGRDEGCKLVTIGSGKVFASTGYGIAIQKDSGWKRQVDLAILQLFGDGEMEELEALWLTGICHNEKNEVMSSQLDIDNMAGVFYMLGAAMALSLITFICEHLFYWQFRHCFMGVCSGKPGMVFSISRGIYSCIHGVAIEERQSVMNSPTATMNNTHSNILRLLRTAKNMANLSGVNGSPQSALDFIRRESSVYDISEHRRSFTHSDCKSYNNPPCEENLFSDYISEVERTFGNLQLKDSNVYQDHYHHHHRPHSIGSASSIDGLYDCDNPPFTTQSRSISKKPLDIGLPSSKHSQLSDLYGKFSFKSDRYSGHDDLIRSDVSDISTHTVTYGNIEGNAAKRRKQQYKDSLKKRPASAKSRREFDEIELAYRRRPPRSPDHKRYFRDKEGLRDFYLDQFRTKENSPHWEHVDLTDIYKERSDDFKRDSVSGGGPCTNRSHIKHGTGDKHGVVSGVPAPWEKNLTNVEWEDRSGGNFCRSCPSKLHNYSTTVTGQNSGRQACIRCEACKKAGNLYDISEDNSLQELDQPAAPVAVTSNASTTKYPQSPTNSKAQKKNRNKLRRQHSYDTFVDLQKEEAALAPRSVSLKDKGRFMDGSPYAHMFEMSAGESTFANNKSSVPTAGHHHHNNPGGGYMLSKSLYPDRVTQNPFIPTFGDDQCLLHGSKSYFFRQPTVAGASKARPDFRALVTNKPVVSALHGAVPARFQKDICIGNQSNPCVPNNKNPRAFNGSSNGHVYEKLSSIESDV

For the compound `CCN(CCCc1ccccc1)C1CCc2ccsc2CC1` (configuration not stated), the Ki was determined as 0.033 µM in test [1], 0.017 µM in test [2] and 0.051 µM in test [3].

In the case of `CN(CCCc1ccccc1)C1CCc2cc(CO)sc2CC1` (configuration not stated), the Ki in test [1] is 0.021 µM; in test [2], 0.0064 µM; in test [3] it was 0.141 µM.

In the case of `COc1ccc2c(c1)CC[C@H](NCCCc1ccccc1)C[C@@H]2O` (relative stereo), in test [4], the IC50 turned out to be 0.012 µM.

Turning to `OCc1cc2c(s1)CCC(NCCCc1ccccc1)CC2` (configuration not stated), the Ki in test [1] came to 0.03 µM; in test [2] it was 0.061 µM; in test [3], 0.183 µM.

Regarding `Brc1cc2c(s1)CCC(NCCCc1ccccc1)CC2` (configuration not stated), the Ki in test [1] was 0.043 µM; in test [2], 0.041 µM; in test [3], 0.013 µM. In addition, the Ratio Ki in test [5] and in test [6] was 3 in each case.

With `CN(CCc1ccccc1)C1CCc2ccsc2CC1` (configuration not stated), the Ki stood at 0.063 µM in test [1], 0.042 µM in test [2] and 0.13 µM in test [3].

On to `Oc1ccc(-c2cc3c(s2)CCC(NCCCc2ccccc2)CC3)cc1` (configuration not stated), for which the Ki amounted to 0.063 µM in test [1], 0.181 µM in test [2] and 0.06 µM in test [3].

Take `c1ccc(CCCCNC2CCc3ccsc3CC2)cc1` (configuration not stated): the figures for the Ki in test [1], in test [2] and in test [3] were 0.0057 µM, 0.062 µM and 0.011 µM, respectively.

Regarding `CN(CCCc1ccccc1)C1CCc2ccsc2CC1` (configuration not stated), the Ki in test [1] is 0.013 µM; in test [2], 0.01 µM; in test [3] it was 0.006 µM. In addition, the Ratio Ki in test [5] and in test [6] was 2 in each case.

For the compound `Clc1ccc2c(c1)CCC(NCCCc1ccccc1)CC2` (configuration not stated), in test [3], the Ki was 0.0021 µM.

In the case of `OCc1cc2c(s1)CCC(NCCCCc1ccccc1)CC2` (configuration not stated), the Ki stood at 0.073 µM in test [1], 0.084 µM in test [2] and 0.764 µM in test [3].

As to `CN(CCc1ccccc1)C1CCc2cc(CO)sc2CC1` (configuration not stated), the values for the Ki in test [1], in test [2] and in test [3] were 0.048 µM, 0.056 µM and 0.726 µM, respectively.

On to `CN(Cc1ccccc1)C1CCc2ccsc2CC1` (configuration not stated), for which the Ki in test [1] came out at 0.091 µM; in test [2], 0.049 µM; in test [3] it was 0.072 µM.

Turning to `CCN(Cc1ccccc1)C1CCc2ccsc2CC1` (configuration not stated), the Ki in test [1] is 0.149 µM; in test [2] it was 0.06 µM; in test [3] it was 0.061 µM.

For the compound `CN(CCCCc1ccccc1)C1CCc2ccsc2CC1` (configuration not stated), the figures for the Ki in test [1], in test [2] and in test [3] were 0.012 µM, 0.017 µM and 0.009 µM, respectively. Besides, the Ratio Ki in test [5] and in test [6] was 1.5 to 2 each time.

`CCN(CCc1ccccc1)C1CCc2ccsc2CC1` (configuration not stated): the figures for the Ki in test [1], in test [2] and in test [3] were 0.141 µM, 0.059 µM and 0.196 µM, respectively.

On to `Brc1cc2c(s1)CCC(NCCCCc1ccccc1)CC2` (configuration not stated), for which the Ki in test [1] was 0.013 µM; in test [2], 0.014 µM; in test [3], 0.023 µM.

As to `CCN(CCCCc1ccccc1)C1CCc2ccsc2CC1` (configuration not stated), the Ki in test [1] was found to be 0.046 µM; in test [2], 0.012 µM; in test [3], 0.033 µM.

Regarding `c1ccc(CCNC2CCc3ccsc3CC2)cc1` (configuration not stated), the Ki turned out to be 0.056 µM in test [1], 0.133 µM in test [2] and 0.033 µM in test [3].

Take `c1ccc(CCCNC2CCc3ccsc3CC2)cc1` (configuration not stated): the Ki in test [1] came out at 0.0051 µM; in test [2], 0.187 µM; in test [3] it was 0.0059 µM.

The Ki is the dissociation constant of the complex between target and ligand, obtained from inhibition or displacement. In general, IC50 refers to the midpoint of a concentration-inhibition curve.

For the origin of these results see ChEMBL document CHEMBL4610008, “Thiophene bioisosteres of GluN2B selective NMDA receptor antagonists: Synthesis and pharmacological evaluation of [7]annuleno[b]thiophen-6-amines” (Bioorg Med Chem, 2020).
